Source: PMC4363603, “Inhibitory Effects of Chemical Compounds Isolated from the Rhizome of Smilax glabra on Nitric Oxide and Tumor Necrosis Factor-α Production in Lipopolysaccharide-Induced RAW264.7 Cell” (Evidence-based Complementary and Alternative Medicine : eCAM, 2015)

Columns and labels:
Type in all cases: cell-based, mouse
[1] = test system: RAW264.7 cells; test: MTT cell viability (cytotoxicity) assay; details: 24 h incubation, concentration inhibiting 10% of cell proliferation, improved Karber methodology, defined as highest noncytotoxic concentration
Procedure: (§1) The mouse macrophage-derived RAW264.7 cell line was purchased from Sun Yat-Sen University, Guangzhou, China, and maintained at 37°C in a humidified atmosphere containing 5% CO2 in Dulbecco's modified eagle medium (DMEM) supplemented with 10% heat-inactivated fetal bovine serum (FBS), penicillin (100 U/mL), and streptomycin (100 μg/mL). Cells in exponential growth phase were used for experiments.
The cytotoxicity of the isolated compounds toward RAW264.7 was evaluated by a conventional MTT assay as reported previously. RAW264.7 cells (1 × 10^5 cells/well) were inoculated to 96-well plates and incubated for 12 h and then treated with different concentrations of compounds. After additional 24 h incubation, 10 μL of MTT solution ([…]) was added to each well, and the plate was incubated for another 4 h. The medium was discarded and 150 μL of dimethyl sulfoxide (DMSO) was added to each well, solubilizing formazan. After 15 min incubation, absorbance at 570 nm was read using a microplate reader. The percent viability was calculated using the following formula: (1) Cell viability%=[…].
The anti-inflammatory activities of the isolates were tested in vitro for inhibiting the NO and TNF-α production in LPS-induced RAW264.7 cells. Firstly, the cytotoxicity of these compounds cells on the proliferation of RAW264.7 cells was measured by MTT assay. The IC10 value of each compound (Table 1), at which 10% of cells proliferation was inhibited, was calculated with an improved Karber methodology and defined as the highest noncytotoxic concentration. While the dose is ≤IC10, the effect of the isolated compound on RAW264.7 cells could be neglected. In the following experiments, the concentrations of each compound were set at [IC10] × 1, [IC10] × 10^−1, and [IC10] × 10^−2 levels.

[2] = test system: NO production in LPS-induced RAW264.7 cells; test: Nitric oxide production in LPS-induced RAW264.7 cells (Griess assay); details: for inhibitory effect on LPS-induced NO production (in words): compounds at [IC10] × 1, × 10^−1, × 10^−2
Procedure: as §1
Nitrite accumulation, as an indicator of NO production in the culture medium, was measured with the Griess reagent as reported previously. RAW264.7 cells were plated into 96-well plate at a density of 3 × 10^6 cells/mL. After 12 h incubation, cells were stimulated by LPS (100 ng/mL) with or without samples for 24 h. Subsequently, the supernatant (100 μL) was harvested and mixed with an equal volume of Griess reagent (0.1% N-(1-naphthyl) ethylenediamine dihydrochloride, 1% sulfanilamide, and 2.5% H3PO4) and stood for 15 min at room temperature in the dark. NO production was determined by measuring absorbance at 540 nm and was converted to nitrite concentration by reference to a standard curve generated with sodium nitrite.
Figure 1 Effects of ethanol extract of S. glabra (ESG) and its four subfractions (ESG-1, ESG-2, ESG-3, and ESG-4) on RAW264.7 cells viability and LPS-induced NO production. Cells viability (a) was tested by MTT assay; higher value of optical density at 490 nm means higher cell viability. Nitrite accumulated in cell culture supernatants was determined by Griess assay as an index for NO release (b). Cells were treated with LPS (1 μg/mL) for 24 h in the absence or presence of samples (1.6, 8.0, 40, and 200.0 μg/mL). The data were presented as mean ± S.D. (n = 5). Dexamethasone (DMS) was employed as a positive control. # and ###, respectively, mean P < 0.05 and P < 0.001 compared with control group. ∗, ∗∗, and ∗∗∗, respectively, mean P < 0.05, P < 0.01, and P < 0.001 compared with group treated with LPS alone.
(§2) Figure 4 The inhibitory effects of the isolated compounds on NO (a) and TNF-α (b) productions in LPS-induced RAW264.7 cells. Cells were seeded into 24-well plates and incubated for 12 h and then treated with or without different concentrations of compounds for 24 h (for NO) or […] (for TNF-α). The culture supernatant was analyzed for nitrite and TNF-α production. Results shown are representative of three separate experiments.

[3] = test system: TNF-α production in LPS-induced RAW264.7 cells; test: TNF-α production in LPS-induced RAW264.7 cells (ELISA); details: for IC50: Mus musculus, LPS-induced RAW264.7 cells; for inhibitory effect on LPS-induced TNF-α production (in words): RAW264.7 cells, compounds at [IC10] × 1, × 10^−1, × 10^−2
Procedure: as §1
RAW264.7 cells (3 × 10^6 cells/mL) were seeded onto 24-well culture plate and incubated for 12 h. The cells were then pretreated with various concentrations of the isolated compounds for 2 h before stimulation with LPS (100 ng/mL) with or without samples for 12 h. Supernatants were then collected and the TNF-α concentrations in the medium were determined using commercially available ESISA kits according to the manufacturer's instructions as described in previous study.
as §2

Row | SMILES | IC10 values [1] [µM] | inhibitory effect on LPS-induced NO production (in words) [2] | IC50 [3] [µM] | inhibitory effect on LPS-induced TNF-α production (in words) [3] | further results
1 | COc1cc(C(=O)O)cc(OC)c1O [Comp. 4, syringic acid] | 5.1 ± 4.2 | significant inhibitory effects | – | – | inhibition at 0.5 µM ([2]; Mus musculus, compound at 0.5 μM): ~19%; inhibition at 5.1 µM ([2]; Mus musculus, compound at 5.1 μM): ~25%
2 | COc1cc(O)cc2c1C(=O)O[C@@H](C)CCCCCCC2 [Comp. 2, lasiodiplodin] | 147.9 ± 15.4 | moderate suppression effects | – | – | –
3 | Oc1ccc(/C=C/c2cc(O)cc(O)c2)cc1 [Comp. 7, trans-resveratrol] | 4.4 ± 5.7 | significant inhibitory effects | < 4.4 | high inhibitory effects | inhibition at 0.4 µM ([2]; Mus musculus, compound at 0.4 μM): ~32%; inhibition at 4.4 µM ([2]; Mus musculus, compound at 4.4 μM): ~48%
4 | COC(=O)/C=C/c1ccc(O)c(O)c1 [Comp. 8, trans-caffeic acid methyl ester] | 5.2 ± 3.2 | – | – | – | –
5 | CC1CCCCCCCc2cc(O)cc(O)c2C(=O)O1 (centres unmarked) [Comp. 3, de-O-methyllasiodiplodin] | 154.3 ± 20.5 | moderate suppression effects | – | – | –
6 | COc1cc([C@H]2OC[C@H]3[C@@H]2CO[C@@H]3c2cc(OC)c(O)c(OC)c2)cc(OC)c1O [Comp. 1, syringaresinol] | 23.9 ± 1.8 | moderate suppression effects | < 2.3 | high inhibitory effects | –
7 | COc1cc(C(O)C(CO)C(CO)C(O)c2cc(OC)c(O)c(OC)c2)cc(OC)c1O (centres unmarked) [Comp. 5, 1,4-bis(4-hydroxy-3,5-dimethoxyphenyl)-2,3-bis(hydroxymethyl)-1,4-butanediol] | 166.0 ± 9.7 | moderate suppression effects | < 16.6 | high inhibitory effects | –
8 | O=C1c2c(O)cc(O)cc2O[C@H](c2ccc(O)cc2)[C@H]1O [Comp. 9, dihydrokaempferol] | 139.4 ± 10.3 | lowest inhibitory effects | – | – | inhibition at 139.4 µM ([2]; Mus musculus, compound at level of IC10, 139.4 μM): 21.3%
9 | COc1cc(C2c3c(cc(OC)c(O)c3OC)CC(CO)C2CO)cc(OC)c1O (centres unmarked) [Comp. 6, lyoniresinol] | 238.1 ± 31.6 | lowest inhibitory effects | – | – | inhibition at 238.1 µM ([2]; Mus musculus, compound at level of IC10, 238.1 μM): 32.7%
